What all share (type): cell-based
One assay deals with T1, ZBTB7A (Homo sapiens, UniProt O95365+Q96SW2).
T1 construct: HUDEP-2 cells engineered to express a HiBiT tag in either the WIZ (Widely interspaced zinc finger) or ZBTB7A
Put plainly: HUDEP-2 ZBTB7A HiBiT degradation assay. The note with it: HiBiT-tagged ZBTB7A degradation in HUDEP-2 cells, 24 hours of treatment; read-out: ZBTB7A EC50. The essentials:
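HiBiT-tagged HUDEP-2 cells were pre-cultured 48 h in IMDM with EPO, SCF, doxycycline and 5% human plasma, then exposed to compounds at 1.0×10^6 cells/ml for 24 h at 37 °C. Nano-Glo HiBiT lytic luminescence, normalised to DMSO over 10 concentrations, gave EC50 and Y-min.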
A general note: With HiBiT, luminescence reflects the tagged protein that the partner subunit can reach.

Another assay has as its target T2, WIZ (Homo sapiens, UniProt O95785+Q96SW2).
T2 construct: HUDEP-2 cells engineered to express a HiBiT tag in either the WIZ (Widely interspaced zinc finger) or ZBTB7A
Put plainly: HUDEP-2 WIZ HiBiT degradation assay. The conditions noted are these: HiBiT-tagged WIZ degradation in HUDEP-2 cells, 24 hours of treatment; read-out: WIZ EC50. In short, it runs like this:
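HiBiT-tagged HUDEP-2 cells at 1.0×10^6 cells/ml in SFEM II with SCF, EPO, dexamethasone and doxycycline, treated 24 h at 37 °C with a 10-point series ([…]). Luminescence after HiBiT lytic detection, normalized to DMSO; EC50 and Y-min from fitted curves.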

For another assay, the system named is HbF. Put plainly: HbF HiBiT induction assay in HUDEP-2 cells. The note with it: HUDEP-2 cells with HiBiT tag in HBG1/2, 72 hours of treatment; area under the dose response curve, higher AUC = greater HbF induction. In short, it runs like this:
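HUDEP-2 cells carrying a HiBiT tag on HBG1/2 were exposed to compounds for 72 h at 37° C, 5% CO2, in IMDM with EPO, hSCF, DOX, transferrin, insulin, heparin and 5% human plasma. HiBiT luminescence was read after lytic detection; HbF induction is expressed as dose-response AUC, alongside EC50 and Ymax.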

T1 sequence (O95365 whole entry): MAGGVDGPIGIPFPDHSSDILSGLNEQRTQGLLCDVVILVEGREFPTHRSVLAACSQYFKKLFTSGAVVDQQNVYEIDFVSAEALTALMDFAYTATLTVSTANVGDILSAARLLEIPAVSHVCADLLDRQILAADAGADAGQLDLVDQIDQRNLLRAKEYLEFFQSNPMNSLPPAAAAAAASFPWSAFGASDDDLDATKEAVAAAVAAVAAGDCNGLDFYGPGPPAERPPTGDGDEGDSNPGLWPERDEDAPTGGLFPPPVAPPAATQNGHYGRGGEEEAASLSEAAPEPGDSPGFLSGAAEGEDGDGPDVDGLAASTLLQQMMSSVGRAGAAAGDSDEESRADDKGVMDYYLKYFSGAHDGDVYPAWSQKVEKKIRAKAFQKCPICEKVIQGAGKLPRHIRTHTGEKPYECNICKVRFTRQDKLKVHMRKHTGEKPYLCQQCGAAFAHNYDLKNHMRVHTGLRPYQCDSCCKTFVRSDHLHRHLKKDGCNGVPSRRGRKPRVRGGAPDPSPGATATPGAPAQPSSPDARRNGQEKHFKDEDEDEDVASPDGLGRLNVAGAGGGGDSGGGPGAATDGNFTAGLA
T1 sequence (Q96SW2 whole entry): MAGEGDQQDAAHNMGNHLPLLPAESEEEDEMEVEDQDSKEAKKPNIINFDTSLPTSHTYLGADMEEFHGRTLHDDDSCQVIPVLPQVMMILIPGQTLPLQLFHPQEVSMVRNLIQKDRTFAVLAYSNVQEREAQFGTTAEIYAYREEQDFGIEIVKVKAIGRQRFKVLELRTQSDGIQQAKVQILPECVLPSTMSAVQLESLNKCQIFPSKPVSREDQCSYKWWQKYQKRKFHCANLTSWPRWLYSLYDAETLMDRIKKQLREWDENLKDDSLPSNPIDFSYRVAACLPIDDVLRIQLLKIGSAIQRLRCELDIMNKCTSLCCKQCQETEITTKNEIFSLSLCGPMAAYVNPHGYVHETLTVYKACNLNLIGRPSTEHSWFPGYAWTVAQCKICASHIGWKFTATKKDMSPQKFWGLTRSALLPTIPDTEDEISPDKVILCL
T1 sequence (Q16531 whole entry partner): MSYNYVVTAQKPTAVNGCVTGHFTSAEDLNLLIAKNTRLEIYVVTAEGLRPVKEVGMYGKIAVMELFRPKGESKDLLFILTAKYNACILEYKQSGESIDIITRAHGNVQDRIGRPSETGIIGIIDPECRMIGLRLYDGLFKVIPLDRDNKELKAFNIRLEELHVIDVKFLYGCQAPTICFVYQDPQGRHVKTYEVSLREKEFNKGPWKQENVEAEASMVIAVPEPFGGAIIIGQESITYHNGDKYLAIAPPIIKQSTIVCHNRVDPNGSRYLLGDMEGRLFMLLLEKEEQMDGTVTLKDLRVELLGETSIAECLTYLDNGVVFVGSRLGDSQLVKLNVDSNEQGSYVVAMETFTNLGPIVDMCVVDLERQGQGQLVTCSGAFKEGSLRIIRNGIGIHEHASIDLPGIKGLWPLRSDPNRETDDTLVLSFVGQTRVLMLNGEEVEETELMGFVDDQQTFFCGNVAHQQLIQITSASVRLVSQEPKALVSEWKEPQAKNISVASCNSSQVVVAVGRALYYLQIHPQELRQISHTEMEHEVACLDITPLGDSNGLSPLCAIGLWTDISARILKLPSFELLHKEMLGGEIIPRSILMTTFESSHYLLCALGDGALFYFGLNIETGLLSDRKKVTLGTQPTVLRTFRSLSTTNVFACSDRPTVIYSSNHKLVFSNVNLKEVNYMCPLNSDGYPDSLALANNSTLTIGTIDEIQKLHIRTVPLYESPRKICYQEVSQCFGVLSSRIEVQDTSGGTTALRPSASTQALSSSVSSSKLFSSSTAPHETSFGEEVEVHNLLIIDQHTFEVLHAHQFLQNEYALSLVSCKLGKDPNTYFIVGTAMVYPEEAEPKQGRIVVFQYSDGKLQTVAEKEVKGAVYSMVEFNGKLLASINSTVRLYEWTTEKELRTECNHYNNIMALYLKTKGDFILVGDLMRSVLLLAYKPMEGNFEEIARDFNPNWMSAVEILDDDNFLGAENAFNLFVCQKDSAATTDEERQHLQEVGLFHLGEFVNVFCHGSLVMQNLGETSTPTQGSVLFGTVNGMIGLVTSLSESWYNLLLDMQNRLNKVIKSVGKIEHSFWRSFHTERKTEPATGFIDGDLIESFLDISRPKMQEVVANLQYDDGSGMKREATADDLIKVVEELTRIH
T2 sequence (O95785 whole entry): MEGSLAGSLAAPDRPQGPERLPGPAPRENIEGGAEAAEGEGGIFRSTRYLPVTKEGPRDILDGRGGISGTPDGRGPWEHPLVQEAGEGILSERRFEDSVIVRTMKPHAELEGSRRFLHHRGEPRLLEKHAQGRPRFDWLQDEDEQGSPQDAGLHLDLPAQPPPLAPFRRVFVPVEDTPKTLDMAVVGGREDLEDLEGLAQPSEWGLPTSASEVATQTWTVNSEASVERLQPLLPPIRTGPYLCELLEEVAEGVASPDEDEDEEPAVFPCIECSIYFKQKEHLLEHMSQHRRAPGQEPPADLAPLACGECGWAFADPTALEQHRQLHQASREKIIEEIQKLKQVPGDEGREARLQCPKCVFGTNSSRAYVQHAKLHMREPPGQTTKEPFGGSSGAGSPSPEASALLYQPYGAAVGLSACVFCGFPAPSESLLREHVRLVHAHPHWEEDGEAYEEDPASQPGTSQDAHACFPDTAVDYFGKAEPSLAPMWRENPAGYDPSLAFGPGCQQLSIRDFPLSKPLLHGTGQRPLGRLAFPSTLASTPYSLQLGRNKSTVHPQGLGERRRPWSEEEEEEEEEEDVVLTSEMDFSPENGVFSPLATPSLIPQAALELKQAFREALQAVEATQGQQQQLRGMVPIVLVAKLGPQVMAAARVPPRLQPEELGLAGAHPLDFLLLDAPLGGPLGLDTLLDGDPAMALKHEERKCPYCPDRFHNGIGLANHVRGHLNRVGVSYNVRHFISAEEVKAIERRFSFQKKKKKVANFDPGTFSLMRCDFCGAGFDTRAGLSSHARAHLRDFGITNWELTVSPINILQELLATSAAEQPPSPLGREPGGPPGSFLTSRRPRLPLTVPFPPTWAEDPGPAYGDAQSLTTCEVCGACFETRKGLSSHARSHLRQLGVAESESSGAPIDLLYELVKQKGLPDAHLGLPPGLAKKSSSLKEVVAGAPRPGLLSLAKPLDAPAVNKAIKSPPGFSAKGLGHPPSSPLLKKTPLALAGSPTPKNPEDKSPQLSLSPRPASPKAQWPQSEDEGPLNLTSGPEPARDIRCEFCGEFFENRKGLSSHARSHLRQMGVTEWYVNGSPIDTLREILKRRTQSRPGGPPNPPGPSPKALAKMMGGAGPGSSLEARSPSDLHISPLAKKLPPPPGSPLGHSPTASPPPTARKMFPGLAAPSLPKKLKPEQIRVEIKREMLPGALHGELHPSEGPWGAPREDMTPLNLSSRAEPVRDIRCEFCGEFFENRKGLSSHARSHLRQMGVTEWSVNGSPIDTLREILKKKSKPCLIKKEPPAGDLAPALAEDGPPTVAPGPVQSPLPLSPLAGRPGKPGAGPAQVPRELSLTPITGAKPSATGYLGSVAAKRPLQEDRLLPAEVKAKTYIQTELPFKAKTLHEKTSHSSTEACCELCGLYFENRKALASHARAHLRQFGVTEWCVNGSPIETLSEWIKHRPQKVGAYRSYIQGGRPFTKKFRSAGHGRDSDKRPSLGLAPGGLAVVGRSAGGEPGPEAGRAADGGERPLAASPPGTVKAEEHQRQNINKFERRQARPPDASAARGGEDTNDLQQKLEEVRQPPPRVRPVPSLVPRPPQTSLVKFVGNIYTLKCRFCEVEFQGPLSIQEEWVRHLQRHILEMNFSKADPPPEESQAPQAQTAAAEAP
T2 sequence (Q96SW2 whole entry): as the sequence (Q96SW2 whole entry) above
T2 sequence (Q16531 whole entry partner): as the sequence (Q16531 whole entry partner) above

With `CC(=O)N1CCC(c2cc3c(cc2Nc2cccc4c2C(=O)N([C@H]2CCC(=O)NC2=O)C4=O)N(C)C(=O)[C@@H](C)O3)CC1` [Compound 32, 4-(((R)-7-(1-acetylpiperidin-4-yl)-2,4-dimethyl-3-oxo-3,4-dihydro-2H-benzo[b][1,4]oxazin-6-yl)amino)-2-((S)-2,6-dioxopiperidin-3-yl)isoindoline-1,3-dione], the results for the DC50 on ZBTB7A and at WIZ were 14 nM and 5 nM, respectively. Besides, the “HBF AUC” value with HbF is reported as “+++ (+++ = AUC ≥ 150)”.

As for `COc1cc(-c2cc3c(cc2Nc2cccc4c2C(=O)N([C@H]2CCC(=O)NC2=O)C4=O)N(C)C(=O)[C@@H](C)O3)ccn1` [Compound 33, 2-((S)-2,6-dioxopiperidin-3-yl)-4-(((R)-7-(2-methoxypyridin-4-yl)-2,4-dimethyl-3-oxo-3,4-dihydro-2H-benzo[b][1,4]oxazin-6-yl)amino)isoindoline-1,3-dione], the DC50 was found to be 24 nM at ZBTB7A and 21 nM on WIZ. For the same compound, in the assay with HbF, the “HBF AUC” value is recorded as “+ (+ = 15 ≤ AUC < 100)”.

For the compound `COc1nccc(-c2cc3c(cc2Nc2cccc4c2C(=O)N([C@H]2CCC(=O)NC2=O)C4=O)N(C)C(=O)CO3)c1F` [Compound 34, (S)-2-(2,6-dioxopiperidin-3-yl)-4-((7-(3-fluoro-2-methoxypyridin-4-yl)-4-methyl-3-oxo-3,4-dihydro-2H-benzo[b][1,4]oxazin-6-yl)amino)isoindoline-1,3-dione], the DC50 at ZBTB7A and at WIZ was 11 nM in each case. The “HBF AUC” value with HbF is “+++ (+++ = AUC ≥ 150)”.

Take `COc1nccc(-c2cc3c(cc2Nc2cccc4c2C(=O)N([C@H]2CCC(=O)NC2=O)C4=O)N(C)C(=O)[C@H](C)O3)c1F` [Compound 35, 2-((S)-2,6-dioxopiperidin-3-yl)-4-(((S)-7-(3-fluoro-2-methoxypyridin-4-yl)-2,4-dimethyl-3-oxo-3,4-dihydro-2H-benzo[b][1,4]oxazin-6-yl)amino)isoindoline-1,3-dione]: the figures for the DC50 at ZBTB7A and on WIZ were 8 nM and 11 nM, respectively. Besides, the “HBF AUC” value in the assay on HbF is reported as “+ (+ = 15 ≤ AUC < 100)”.

`COc1nccc(-c2cc3c(cc2Nc2cccc4c2C(=O)N([C@H]2CCC(=O)NC2=O)C4=O)N(C)C(=O)[C@@H](C)O3)c1F` [Compound 36, 2-((S)-2,6-dioxopiperidin-3-yl)-4-(((R)-7-(3-fluoro-2-methoxypyridin-4-yl)-2,4-dimethyl-3-oxo-3,4-dihydro-2H-benzo[b][1,4]oxazin-6-yl)amino)isoindoline-1,3-dione]: the DC50 on ZBTB7A came to 19 nM; on WIZ, 15 nM. Besides, the “HBF AUC” value in the assay on HbF was “+ (+ = 15 ≤ AUC < 100)”.

Turning to `Cc1ccc(-c2cc3c(cc2Nc2cccc4c2C(=O)N([C@H]2CCC(=O)NC2=O)C4=O)N(C)C(=O)CO3)c(F)n1` [Compound 37, (S)-2-(2,6-dioxopiperidin-3-yl)-4-((7-(2-fluoro-6-methylpyridin-3-yl)-4-methyl-3-oxo-3,4-dihydro-2H-benzo[b][1,4]oxazin-6-yl)amino)isoindoline-1,3-dione], the DC50 at ZBTB7A was found to be 13 nM; on WIZ, 7 nM. In the assay with HbF, the “HBF AUC” value is given as “+ (+ = 15 ≤ AUC < 100)”.

`COc1ccc(-c2cc3c(cc2Nc2cccc4c2C(=O)N([C@H]2CCC(=O)NC2=O)C4=O)N(C)C(=O)CO3)cn1` [Compound 38, (S)-2-(2,6-dioxopiperidin-3-yl)-4-((7-(6-methoxypyridin-3-yl)-4-methyl-3-oxo-3,4-dihydro-2H-benzo[b][1,4]oxazin-6-yl)amino)isoindoline-1,3-dione]: the results for the DC50 on ZBTB7A and at WIZ were 13 nM and 14 nM, respectively. Also, the “HBF AUC” value in the assay on HbF is “++ (++ = 100 ≤ AUC < 150)”.

For `COc1ccc(-c2cc3c(cc2Nc2cccc4c2C(=O)N([C@H]2CCC(=O)NC2=O)C4=O)N(C)C(=O)[C@@H](C)O3)cn1` [Compound 39, 2-((S)-2,6-dioxopiperidin-3-yl)-4-(((R)-7-(6-methoxypyridin-3-yl)-2,4-dimethyl-3-oxo-3,4-dihydro-2H-benzo[b][1,4]oxazin-6-yl)amino)isoindoline-1,3-dione], the DC50 on ZBTB7A was found to be 16 nM; at WIZ, 13 nM. The “HBF AUC” value in the assay on HbF is given as “+ (+ = 15 ≤ AUC < 100)”.

With `COc1ccc(-c2cc3c(cc2Nc2cccc4c2C(=O)N([C@H]2CCC(=O)NC2=O)C4=O)N(C)C(=O)[C@H](C)O3)cn1` [Compound 40, 2-((S)-2,6-dioxopiperidin-3-yl)-4-(((S)-7-(6-methoxypyridin-3-yl)-2,4-dimethyl-3-oxo-3,4-dihydro-2H-benzo[b][1,4]oxazin-6-yl)amino)isoindoline-1,3-dione], the DC50 came out at 16 nM on ZBTB7A and 12 nM at WIZ. Further, the “HBF AUC” value with HbF is “+ (+ = 15 ≤ AUC < 100)”.

`Cc1cncc(-c2cc3c(cc2Nc2cccc4c2C(=O)N([C@H]2CCC(=O)NC2=O)C4=O)N(C)C(=O)CO3)c1` [Compound 41, (S)-2-(2,6-dioxopiperidin-3-yl)-4-((4-methyl-7-(5-methylpyridin-3-yl)-3-oxo-3,4-dihydro-2H-benzo[b][1,4]oxazin-6-yl)amino)isoindoline-1,3-dione]: the DC50 at ZBTB7A stood at 17 nM; at WIZ, 10 nM. In addition, the “HBF AUC” value with HbF is recorded as “+++ (+++ = AUC ≥ 150)”.

For the compound `Cc1cncc(-c2cc3c(cc2Nc2cccc4c2C(=O)N([C@H]2CCC(=O)NC2=O)C4=O)N(C)C(=O)[C@@H](C)O3)c1` [Compound 42, 4-(((R)-2,4-dimethyl-7-(5-methylpyridin-3-yl)-3-oxo-3,4-dihydro-2H-benzo[b][1,4]oxazin-6-yl)amino)-2-((S)-2,6-dioxopiperidin-3-yl)isoindoline-1,3-dione], the DC50 stood at 18 nM at ZBTB7A and 9 nM at WIZ. In addition, the “HBF AUC” value in the assay on HbF is “+ (+ = 15 ≤ AUC < 100)”.

Consider `Cc1cncc(-c2cc3c(cc2Nc2cccc4c2C(=O)N([C@H]2CCC(=O)NC2=O)C4=O)N(C)C(=O)[C@H](C)O3)c1` [Compound 43, 4-(((S)-2,4-dimethyl-7-(5-methylpyridin-3-yl)-3-oxo-3,4-dihydro-2H-benzo[b][1,4]oxazin-6-yl)amino)-2-((S)-2,6-dioxopiperidin-3-yl)isoindoline-1,3-dione], for which the figures for the DC50 at ZBTB7A and on WIZ were 24 nM and 15 nM, respectively. The “HBF AUC” value in the assay on HbF is recorded as “++ (++ = 100 ≤ AUC < 150)”.

Take `CCO[C@H]1CC[C@H](c2cc3c(cc2Nc2cccc4c2C(=O)N([C@H]2CCC(=O)NC2=O)C4=O)N(C)C(=O)CO3)CC1` [Compound 44, 2-((S)-2,6-dioxopiperidin-3-yl)-4-((7-((1r,4S)-4-ethoxycyclohexyl)-4-methyl-3-oxo-3,4-dihydro-2H-benzo[b][1,4]oxazin-6-yl)amino)isoindoline-1,3-dione]: the DC50 is 6 nM at ZBTB7A and 4 nM at WIZ. The “HBF AUC” value in the assay on HbF was “++ (++ = 100 ≤ AUC < 150)”.

As to `CCO[C@H]1CC[C@H](c2cc3c(cc2Nc2cccc4c2C(=O)N([C@H]2CCC(=O)NC2=O)C4=O)N(C)C(=O)[C@@H](C)O3)CC1` [Compound 45, 2-((S)-2,6-dioxopiperidin-3-yl)-4-(((R)-7-((1r,4R)-4-ethoxycyclohexyl)-2,4-dimethyl-3-oxo-3,4-dihydro-2H-benzo[b][1,4]oxazin-6-yl)amino)isoindoline-1,3-dione], the values for the DC50 on ZBTB7A and on WIZ were 10 nM and 6 nM, respectively. Besides, the “HBF AUC” value in the assay with HbF is recorded as “++ (++ = 100 ≤ AUC < 150)”.

With `CCO[C@H]1CC[C@H](c2cc3c(cc2Nc2cccc4c2C(=O)N([C@H]2CCC(=O)NC2=O)C4=O)N(C)C(=O)[C@H](C)O3)CC1` [Compound 46, 2-((S)-2,6-dioxopiperidin-3-yl)-4-(((S)-7-((1r,4S)-4-ethoxycyclohexyl)-2,4-dimethyl-3-oxo-3,4-dihydro-2H-benzo[b][1,4]oxazin-6-yl)amino)isoindoline-1,3-dione], the DC50 at ZBTB7A is 7 nM; on WIZ, 2 nM. For the same compound, the “HBF AUC” value in the assay on HbF is given as “++ (++ = 100 ≤ AUC < 150)”.

`Cc1cc(-c2cc3c(cc2Nc2cccc4c2C(=O)N([C@H]2CCC(=O)NC2=O)C4=O)N(C)C(=O)CO3)cc(C(F)F)n1` [Compound 47, (S)-4-((7-(2-(difluoromethyl)-6-methylpyridin-4-yl)-4-methyl-3-oxo-3,4-dihydro-2H-benzo[b][1,4]oxazin-6-yl)amino)-2-(2,6-dioxopiperidin-3-yl)isoindoline-1,3-dione]: the DC50 at ZBTB7A amounted to 49 nM; at WIZ it was 43 nM. Further, the “HBF AUC” value in the assay on HbF is recorded as “+++ (+++ = AUC ≥ 150)”.

Consider `Cc1cc(-c2cc3c(cc2Nc2cccc4c2C(=O)N([C@H]2CCC(=O)NC2=O)C4=O)N(C)C(=O)[C@H](C)O3)cc(C(F)F)n1` [Compound 48, 4-(((S)-7-(2-(difluoromethyl)-6-methylpyridin-4-yl)-2,4-dimethyl-3-oxo-3,4-dihydro-2H-benzo[b][1,4]oxazin-6-yl)amino)-2-((S)-2,6-dioxopiperidin-3-yl)isoindoline-1,3-dione], for which the DC50 on ZBTB7A turned out to be 52 nM; on WIZ, 31 nM. Moreover, the “HBF AUC” value in the assay on HbF was “++ (++ = 100 ≤ AUC < 150)”.

The record behind these values is US20250333407A1, “Compounds and Their Use for Treatment of Hemoglobinopathies” (Bristol-Myers Squibb Company, priority 2024, published 2025).
